Assays:
CYP3A4 = CYP3A4 (Homo sapiens, UniProt P08684); set-up: purchased Corning; host or cells: insect cells (microsomes); details: inhibiting EET biosynthesis; background statement; cited from earlier work
AMPKα = AMPKα phosphorylation (Thr172) in MCF-7 cells, Western blotting; assay type: cell-based, human; details: 10 μM, with and without serum, FIG. 7
Procedure: FIG. 7. Effect of HCB on MCF-7 AMPKα phosphorylation (Thr172). MCF-7 cells were grown in complete media to 70% confluency and treated with 10 μM HCB. Cells were harvested at varied time (0-24 hr) and total proteins were extracted and analyzed by Western blotting. For 0% serum experiment, complete media was replaced with serum, phenol red and antibiotics free media 16 hours before treatment. Quantitation results are expressed as mean±S.D. (n=3, * indicates statistically significant difference, p<0.05). MCF-7 cells were grown in complete media (10% serum) to 80% confluence. Left panel: HCB was added to a final concentration of 10 μM in complete media; Right panel: complete media was replaced with serum free media and serum starved for 16 hours before HCB was added to a final concentration of 10 μM. At indicated time points after the addition of HCB, cells were harvested and analyzed by Western blotting. AMPK activation was reported as fractional Thr172 phosphorylation±S.D. (n=3, * indicates statistically significant difference from control).

CYP3A4, sequence (P08684 whole entry): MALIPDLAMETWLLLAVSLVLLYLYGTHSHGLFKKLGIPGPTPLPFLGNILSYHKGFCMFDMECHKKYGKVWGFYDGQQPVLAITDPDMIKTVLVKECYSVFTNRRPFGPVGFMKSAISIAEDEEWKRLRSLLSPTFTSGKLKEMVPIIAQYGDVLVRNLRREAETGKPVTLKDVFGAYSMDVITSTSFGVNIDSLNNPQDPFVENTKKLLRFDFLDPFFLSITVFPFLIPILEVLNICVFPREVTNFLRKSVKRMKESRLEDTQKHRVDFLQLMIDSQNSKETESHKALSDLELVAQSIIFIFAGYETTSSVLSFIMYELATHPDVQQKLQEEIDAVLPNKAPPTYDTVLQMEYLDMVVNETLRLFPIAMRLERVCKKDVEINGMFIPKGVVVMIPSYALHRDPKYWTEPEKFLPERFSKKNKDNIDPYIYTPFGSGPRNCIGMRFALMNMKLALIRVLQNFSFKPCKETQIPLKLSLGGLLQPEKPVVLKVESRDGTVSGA

SMILES	fold more potent than metformin (CYP3A4) [fold]	AMPK phosphorylation (AMPKα)
CCCCCCNC(=N)NC(=N)NCc1ccccc1 [HBB, N1-hexyl-N5-benzyl-biguanide]	100	
CCCCCCNC(=N)NC(=N)NCC12C3C4C5C3C1C5C42 (centres unmarked) [HCB, Hexyl Cubanomethyl Biguanide]		potent activation

From US20240067603A1, “CUBANYL BIGUANIDE COMPOUNDS” (REGENTS OF THE UNIVERSITY OF MINNESOTA, priority 2020, published 2024)
